The subject of one series is C2C12 cells. Put plainly: Cell proliferation assay (AlamarBlue). It is filed as cell-based. Conditions: 24 h after 2% HS addition, control 100±7.3%. The procedure:
C2C12 cells (American Type Culture Collection, ATCC, Manassas, VA, USA) were cultured in DMEM supplemented with 10% FBS and 1% penicillin-streptomycin. To induce myogenic differentiation, 70% confluence C2C12 cells were culture in DMEM containing 2% HS (horse serum). Cells were maintained in a humidified chamber at 37° C., in 95% air and 5% CO2. Media was replaced with fresh every 48h.
C2C12 cells were plated in 96-well plates (Corning, Cultek, Spain) (12.500 cells/well). Cell proliferation was measured using AlamarBlue assay according to the manufacturer's instructions, at 24 and 48 h of myogenic differentiation.
For orientation: The colour change of resazurin is a common sign of viable cells or microbes.

In series [1] the test system is C2C12. Put plainly: Western blot of adenosine receptors, P2X7 and Panx-1 during differentiation. Format: cell-based. As for the experimental part: (§1) Cells were lysed with RIPA buffer and protein concentration was determined by BCA. […] Variations in intensity were expressed as % of basal (day 0) and expressed as mean±SEM. All results were calculated as a percentage of non-differentiated controls to minimize the intrinsic variation among different experiments.
The expression of adenosine receptors, P2X7 receptor and Panx-1 channel was analyzed during myoblast differentiation.
For orientation: Immunoblotting shows a protein as a band on a membrane.

Series [2] relates to C2C12. Put plainly: Western blot of PKA isoforms, pCREB, EPAC1/2. Format: cell-based. As for the experimental part: as §1
To study the CAMP signaling pathway, we analyzed the expression of PKA on its three catalytic isoforms PKAα, PKAβ and PKAγ as well as EPAC1/2. […] Tenofovir reduced its phosphorylation (154±9% tenofovir vs 247±30% control at day 4, p<0.05, FIG. 3B).

For series [3], the system named is C2C12. Description: cAMP concentration (ELISA). The note with it: myoblast, 1 μM, 5 minutes; control 0.58±0.13. Format: cell-based. The procedure: CAMP concentration was measured using the colorimetric cAMP ELISA kit following manufacture protocol for acetylated cell lysates (Cell Biolabs, San Diego, USA). Absorbance was measured at 450 nm using a microplate reader Tecan Spark 20M.
The CAMP signaling cascade has been linked to a delay in the onset of age-related muscle loss.

Series [4] deals with C2C12. Description: Western blot of phosphorylated AMPK. Format: cell-based. Conditions: 1 μM, day 4, vs basal. The procedure: as §1
We next studied if these changes in AMP/ATP ratio had any effect in AMPK activation.

Series [5] relates to C2C12. Put plainly: Nucleotide concentration by HPLC during C2C12 differentiation. It is filed as cell-based.
Protocol: Supernatant and cell lysate are collected every day. Cells were lysated with a homemade buffer (1 mM phenylmethylsulfonyl fluoride, 1 mM protease inhibitor cocktail, 1 mM sodium orthovanadate, 1 mM sodium fluoride and 1 mM β-glicerophospate) and supernatant was used directly. A heat shock step was done at 98° C. for 2 min, and to avoid adenosine degradation 1 μM EHNA was added at the time of heating. All samples were centrifuged at 13000 g for 10 min at 4° C. and supernatants were collected and stored at −80° C. until use. Inosine, adenosine, AMP, ADP and ATP concentrations were determined with high performance liquid chromatography (HPLC) using a liquid chromatograph with a reversed phase column (Agilent 1100 Series Liquid Chromatography) and an UV detector set at 254 nm. Buffer composed of 0.1 mol/L KH2PO4 (pH 7.5) and 18% acetonitrile was run at 1.5 ml/min for 20 min. Compounds were identified and quantified by their retention times and peak areas of known standards, calibrated by spectrophotometry. […] The results have been corrected and expressed as mean±SEM. All results were calculated as a percentage of controls without differentiation state.
Series [6] relates to C2C12. Description: AMPK phosphorylation assay kit (short time points). The note with it: myoblast, 1 μM, 10 min after switching to 2% HS; control 1.97±0.17. Format: cell-based. As for the experimental part: Assay was performed with the AMPK phosphorilation assay kit (Abnova Corporation, Jhouzih St, Taiwan) as manufactor instructions and pAMPK was measured at λex/em 530/585 nm and 360/450 nm for total protein with Tecan Infinite.

The conditions of series [7]: mice, tenofovir 75 mg/Kg/day; cited from earlier work.
In series [8] the test system is C2C12. Put plainly: Western blot of myogenesis markers during differentiation. It is filed as cell-based. The procedure: as §1
The test system of the next series is C2C12 myoblast cell line. Put plainly: Western blot of C2C12 under pro-inflammatory conditions with/without dipyridamole. The note with it: for PAX7 expression (vs 100% basal): IL-6 2.5 μg/ml, INFγ 1 μg/ml or LPS 10 μg/ml ± dipyridamole 1 μM, control 64.7±5%; for PAX7 expression (vs 100% basal) / AMPK activation / CREB activation / MHC expression (vs 100% basal) / PKAα expression: day 4; for A2BR expression / AMPK activation / CREB activation / MHC expression (vs 100% basal): cytokine/LPS ± dipyridamole 1 μM; for AMPK activation: control 222.7±23.9%; for CREB activation: control 353.7±45.15%; for MHC expression (vs 100% basal): control 757.6±85.7%; for PKAα expression: control 213.9±21.6%.

The test system of another series is C2C12 myobundles. Description: C2C12 3D myobundle with IL-6 ± dipyridamole. It is filed as cell-based. Conditions: IL-6 2.5 μg/ml ± dipyridamole 1 μM, 14 days; Sham 890±39. An excerpt:
C2C12 myobundles were fabricated following the protocol described by Bursac group (see references in ref. 44). Briefly, molds of polydimethylsiloxane (PDMS) designed for 12-well plates were created from Teflon masters with semicylindrical wells. These molds were sterilized, coated with 0.2% (w/v) Pluronic F-127 (Invitrogen) to prevent tissue adhesion, and paired with laser-cut Cerex frames (9×9 mm^2, 1-mm-wide rim) for myobundle attachment. The frames served as an anchor and guide during hydrogel compaction, ensuring uniaxial cell alignment. C2C12 cells were encapsulated in a hydrogel solution, including bovine fibrinogen (Sigma-Aldrich), matrigel (Corning), bovine thrombin (Sigma-Aldrich), and growth medium as concentration of bursac group indicates Referencias. The cell/hydrogel mixture was polymerized in the PDMS molds, and myobundles were cultured in a humidified chamber at 37° C., in 95% air and 5% CO2. After 4 days, the frames with myobundles were suspended in DM with treatments. DM and treatments are replaced every two days. GM and DM media contained 6-aminocaproic acid to reduce fibrinolysis. […] After the 14 days of treatment a bright-field photograph was taken to analyze the thickness of the fiber at its midpoint, and subsequently, they were embedded in OCT medium. […]

“And” between values parts separate entries of the source, which are not always exact repeats. Equal entries are not always repeated.

Protocol for C2C12 myoblast cell line: Western blot was performed as described above.
Protein concentration was determined by BCA. 4 μg for cells and 40-50 μg for tissue samples of protein was subjected to 6-15% SDS-PAGE and transferred to a nitrocellulose membrane. Membranes were blocked with 3% BSA in Tris-buffered saline containing 0.1% Tween-20 (TBS-T). After that, the membranes were incubated overnight at 4° C. with the primary antibodies for A2A, A2B, MHC (Thermo Fisher Scientific, Waltham, USA), AMPK, pAMPK (Thr172), p21, p16 (Cell signaling, Danvers, EEUU) (1:1000 each) and Pax-7 (Developmental Studies Hybridoma Bank, Houston, EEUU) (1:500 each).

Consider `C[C@H](Cn1cnc2c(N)ncnc21)OCP(=O)(O)O` [tenofovir], for which the “Proliferation compared to control” value in the series with C2C12 cells (1 μM) was found to be 63.3±5%; in the series on C2C12 cells (10 μM), 62.8±6.4%. Moreover, in the series with C2C12 [1] (1 μM each, day 4), the “Adenosine A2B receptor protein expression (% of basal)” value is given as 553±47%. Besides, the “A3 receptor protein expression” value with C2C12 [1] (1 μM, compared to control) is given as “did not change”. In addition, the “P2X7 protein expression (% of basal)” value with C2C12 [1] (1 μM, day 4) was determined as 89±19%. In addition, the “PKAα protein expression (% of basal)” value with C2C12 [2] (1 μM each, day 4, control 292±65%) is 215±90% and 215.8±94.2%. In addition, the “pCREB (% of basal)” value in the series on C2C12 [2] (1 μM, day 4, control 247±30%) amounted to 154±9%. Besides, in the series with C2C12 [2] (1 μM, within differentiation), the EPAC2 protein expression result is “maintained the expression similar to basal levels”. The same molecule came in with a cAMP levels in the series with C2C12 [3] of 0.24±0.07. The “pAMPK (Western blot)” value in the series on C2C12 [4] is listed as 1.15±0.05. The “Intracellular ATP” value with C2C12 [5] (1 μM each, day 1, control 4.93±0.02) is 11.56 ± 0.26 nM and 11.74 ± 0.08 nM. Further, in the series with C2C12 [5] (1 μM each, day 3, control 1.88±0.12), the “Intracellular AMP/ATP ratio” value is given as 0.62±0.03. The “Extracellular ATP” value with C2C12 [5] (1 μM each, day 4, control 14.7±0.5) turned out to be 10.67 ± 0.28 nM. The Intracellular adenosine result in the series on C2C12 [5] (1 μM, day 4, control 10.87±0.73) is on record as “did not change”. In the series on C2C12 [5] (1 μM, day 4, control 11.07±0.54), the Intracellular inosine entry is “did not modulate”. In the series with C2C12 [5] (1 μM, day 4, control 12.10±0.73), the “Intracellular AMP” value is 6.33 ± 0.35 nM. Besides, the Extracellular adenosine with C2C12 [5] (1 μM, day 4 of differentiation, control 11.6±0.81) stood at 6.65 ± 0.54 nM. The same molecule displayed an AMPK activation with C2C12 [6] of 1.02±0.19. Further, in [7], the Body weight lost is around 10%. The “MHC protein expression (% of basal)” value in the series with C2C12 [8] (1 μM each, day 1) was 1429±379% and 1153±131%. In addition, the “PAX7 protein expression (% of basal)” value with C2C12 [8] (1 μM, day 1, control 315±58%) is on record as 101±23%. Also, the “MyoD protein expression (% of basal)” value in the series with C2C12 [8] (1 μM, day 2, control 182±8%) amounted to 389±33%. Also, the “Myf5 protein expression (% of basal)” value in the series with C2C12 [8] (1 μM, first 2 days of differentiation) is on record as 142±23%.

B1: IL-6: pro-inflammatory cytokine used at 2.5 μg/ml on C2C12 (protein, UniProt P08505 25-211, looked up)
Interleukin-6: FPTSQVRRGDFTEDTTPNRPVYTTSQVGGLITHVLWEIVEMRKELCNGNSDCMNNDDALAENNLKLPEIQRNDGCYQTGYNQEICLLKISSGLLEYHSYLEYMKNNLKDNKKDKARVLQRDTETLIHIFNQEVKDLHKIVLPTPISNALLTDKLESQKEWLRTKTIQFILKSLEEFLKVTLRSTRQT
For the molecule B1, in the series with C2C12 myoblast cell line, the “PAX7 expression (vs 100% basal)” value was found to be 121±8%, the AMPK activation came out at 80.9±5.8%, the CREB activation is 163.4±19.26% and the “MHC expression (vs 100% basal)” value was found to be 127.7±15.8%. For the same molecule, in the series on C2C12 myoblast cell line, the PKAα expression turned out to be 107±5.8%. Moreover, in the series with C2C12 myoblast cell line (24 h, control 112.9±4.7%), the A2BR expression turned out to be 75.8±2.2%. Besides, the A2BR expression in the series with C2C12 myoblast cell line (4 days, control 172.7±12.6%) worked out at 67.6±3%. The molecule also yielded a Myobundle thickness with C2C12 myobundles of 616.3±22.9 μm.

B2: INFγ: pro-inflammatory cytokine used at 1 μg/ml on C2C12 (protein, UniProt P01580 23-155, looked up)
Interferon gamma: HGTVIESLESLNNYFNSSGIDVEEKSLFLDIWRNWQKDGDMKILQSQIISFYLRLFEVLKDNQAISNNISVIESHLITTFFSNSKAKKDAFMSIAKFEVNNPQVQRQAFNELIRVVHQLLPESSLRKRKRSRC
On to B2, for which, in the series with C2C12 myoblast cell line, the “PAX7 expression (vs 100% basal)” value turned out to be 114±11%, the AMPK activation came out at 80.4±6.1%, the CREB activation is listed as 176.7±27.8% and the “MHC expression (vs 100% basal)” value worked out at 123.1±20.3%. The molecule also showed a PKAα expression in the series with C2C12 myoblast cell line of 101.7±3.7%. For the same molecule, in the series on C2C12 myoblast cell line (24 h, control 112.9±4.7%), the A2BR expression came to 69.3±1.9%. Also, in the series on C2C12 myoblast cell line (4 days, control 172.7±12.6%), the A2BR expression was 66.03±20.3%.

Values taken from patent US20260263468A1 (Fundación Instituto de Investigación Sanitaria Fundación …, priority 2023, published 2026).
